Reference: patent US20160362478A1, “CD4-MIMETIC SMALL MOLECULES SENSITIZE HUMAN IMMUNODEFICIENCY VIRUS TO VACCINE-ELICITED ANTIBODIES” (priority 2014, published 2016)

Assays:
[1] = molecular target: HIV-1 JR-FL envelope glycoproteins (Env) (HIV-1 JR-FL); assay: cell-based or functional assay
[2] = molecular target: HIV-1 YU2 envelope glycoproteins (Env) (HIV-1 YU2) (UniProt P35961); assay: cell-based or functional assay
[3] = tested on: primary CD4 T cells infected with transmitted/founder (T/F) viruses and their 6-month counterparts; assay: Recognition of primary CD4 T cells infected with primary HIV-1 by HIV-1+ sera; type: cell-based, human; conditions: data not shown
[4] = tested on: HIV-1 JR-FL; assay: Infection of Cf2Th-CD4/CCR5 cells by single-round luciferase virus with HIV-1 JR-FL Env; type: cell-based; conditions: for IC50: Human immunodeficiency virus 1, Cf2Th-CD4/CCR5, read-out: IC50, inhibition of HIV-1 JR-FL infection; for inhibition of HIV-1 JR-FL virus relative to parental NBD-556: cells expressing CD4 and CCR5
Procedure: (§1) Recombinant luciferase viruses: 293T human embryonic kidney cells were co-transfected with plasmids expressing the pCMVΔP1Δenv HIV-1 Gag-Pol packaging construct, the R5 YU2 envelope glycoproteins, or the envelope glycoprotein of the control amphotropic murine leukemia virus (A-MLV), and the firefly luciferase-expressing vector at a DNA ratio of 1:1:3 μg using the Effectene transfection reagent (Qiagen). Co-transfection produced single-round, replication-defective viruses. The virus-containing supernatants were harvested 36-40 h after transfection, spun, aliquoted, and frozen at −80° C. until further use. The reverse transcriptase (RT) activities of all viruses were measured as described in Rho, H. M., et al. Virology 1981, 112, 355-360.
(§2) Infection by single-round luciferase viruses. Cf2Th-CCR5-CD4 target cells were seeded at a density of 6×10^3 cells/well in 96-well luminometer-compatible tissue culture plates (PerkinElmer) 24 h before infection. […] In the case of sensitization assays, a constant concentration of compounds was incubated with virus for 30 min at 37° C.; then, 17b or other antibodies (0-100 μg/mL) were added to the virus/compound mixture and incubated for an additional 30 min at 37° C. The mixtures were then added to the target cells and incubated for 48 h at 37° C.; after this time, the medium was removed from each well, and the cells were lysed by the addition of 30 μL passive lysis buffer (Promega) and three freeze-thaw cycles. An EG&G Berthold Microplate Luminometer LB 96V was used to measure the luciferase activity of each well after the addition of 100 μL of luciferin buffer (15 mM MgSO4, 15 mM KPO4, pH 7.8, 1 mM ATP, and 1 mM dithiothreitol) and 50 μL of 1 mM Firefly D-Luciferin Free Acid 99% (Prolume).
The ability of selected CD4-mimetic compounds to inhibit HIV-1 entry was examined. […] Recombinant HIV-1 expressing the firefly luciferase gene was pseudotyped with different envelope glycoproteins, either HIV-1 JR-FL Env or, as a control, the amphotropic murine leukemia virus (A-MLV) envelope glycoproteins. The recombinant viruses were incubated with cells expressing CD4 and CCR5 in the presence of different concentrations of the compounds.

[5] = tested on: HIV-1 YU2; assay: Infection of Cf2Th-CD4/CCR5 cells by single-round luciferase virus with HIV-1 YU2 Env; type: cell-based; conditions: Human immunodeficiency virus 1, Cf2Th-CD4/CCR5, read-out: IC50, inhibition of HIV-1 YU2 infection
Procedure: as §1
(§3) Infection by single-round luciferase viruses. Cf2Th-CCR5-CD4 target cells were seeded at a density of 6×10^3 cells/well in 96-well luminometer-compatible tissue culture plates (PerkinElmer) 24 h before infection. […] In the case of sensitization assays, a constant concentration of compounds was incubated with virus for 30 min at 37° C.; then, 17b or other antibodies (0-100 μg/mL) were added to the virus/compound mixture and incubated for an additional 30 min at 37° C. […]

[6] = tested on: HIV-1 YU2; assay: Sensitization assay: antibody neutralization of HIV-1 YU2 with CD4-mimetic compound; type: cell-based; conditions: sub-neutralizing compound concentrations
Procedure: as §2
The ability of (+)-DMJ-I-228 and (+)-DMJ-II-121 to each sensitize HIV-1 to neutralization by antibodies was examined using the single-round infection of Cf2Th-CD4/CCR5 cells by recombinant HIV-1 encoding firefly luciferase. The recombinant viruses were pseudotyped with the HIV-1 Envs derived from the primary R5 HIV-1 JR-FL and YU2 isolates. […]

[7] = tested on: HIV-1; assay: Inhibition of HIV-1 infection (overview statement); type: cell-based; conditions: Human immunodeficiency virus 1, read-out: IC50, inhibition of HIV-1 infection
[8] = tested on: A-MLV; assay: Infection by control virus pseudotyped with A-MLV envelope glycoproteins; type: cell-based, amphotropic murine leukemia virus; conditions: at 100 μM
Procedure: as §1, §3

[9] = molecular target: wild-type HIV-1 YU2 gp120 glycoprotein (Human immunodeficiency virus type 1 group M subtype B, UniProt P35961); assay: Isothermal titration calorimetry, binding to gp120; conditions: ITC, 25° C.
Procedure: Isothermal Titration Calorimetry. Thermodynamic parameters for the binding of the different inhibitors to gp120 were obtained by isothermal titration calorimetry (ITC) using a VP-ITC microcalorimeter from MicroCal/GE Healthcare (Northampton, Mass., USA). The titrations were performed at 25° C. by injecting 10 μL aliquots of inhibitor solution into the calorimetric cell (volume ˜1.4 mL) containing gp120 at a concentration of 2 μM. […] In all titration experiments, gp120 and the different inhibitors were equilibrated with PBS, pH 7.4, with 2% DMSO. The heat evolved upon each injection of inhibitor was obtained by integration of the calorimetric signal. The heat associated with inhibitor binding to gp120 was obtained by subtracting the heat of dilution from the heat of reaction. The enthalpy change (ΔH) and association constant (Ka=[…]) were obtained by nonlinear regression of the data.
The thermodynamics of the binding of each compound to the wild-type HIV-1 YU2 gp120 glycoprotein was analyzed by isothermal titration calorimetry.

[10] = tested on: HIV-1 JR-FL; assay: Sensitization assay: antibody neutralization of HIV-1 JR-FL with CD4-mimetic compound; type: cell-based; conditions: for sensitization of HIV-1 JR-FL to neutralization by 17b and 39F antibodies: sub-neutralizing compound concentrations
Procedure: as §2
The ability of (+)-DMJ-I-228 and (+)-DMJ-II-121 to each sensitize HIV-1 to neutralization by antibodies was examined using the single-round infection of Cf2Th-CD4/CCR5 cells by recombinant HIV-1 encoding firefly luciferase. The recombinant viruses were pseudotyped with the HIV-1 Envs derived from the primary R5 HIV-1 JR-FL and YU2 isolates. Recombinant HIV-1 pseudotyped with the amphotropic murine leukemia virus (A-MLV) Env was used as a control for specificity. HIV-L neutralization was examined in the presence of sub-neutralizing concentrations of the CD4-mimetic compounds and different concentrations of monoclonal antibodies. […] The 17b antibody recognizes a well-conserved CD4i epitope on the HIV-1 gp120 core that is not formed or exposed in the unliganded Env of primary HIV-1 strains. The 39F antibody recognizes a conformation-dependent epitope in the gp120 V3 region of primary R5 HIV-1. […] and (+)-DMJ-II-121 each render primary HIV-1 isolates sensitive to neutralization by monoclonal antibodies directed against CD4i and V3 epitopes on the gp120 Env.

[11] = tested on: HIV-1 JR-FL; assay: Cold inactivation of recombinant virus on ice; type: cell-based; conditions: compound 50 μM
Procedure: Cold Inactivation. […] Cf2Th-CCR5-CD4 target cells were seeded at a density of […] cells/well in a 96-well luminometer-compatible tissue-culture plate (PerkinElmer) 24 h before infection. The mixtures were then added to target cells and incubated for 48 h at 37° C.; after this time, the medium was removed from each well, and the cells were lysed by the addition of 30 μL passive lysis buffer (Promega) and three freeze-thaw cycles. An EG&G Berthold Microplate Luminometer LB 96V was used to measure the luciferase activity of each well after the addition of 100 μL of luciferin buffer (15 mM MgSO4, 15 mM KPO4, pH 7.8, 1 mM ATP, and 1 mM dithiothreitol) and 50 μL of 1 mM Firefly D-Luciferin Free Acid 99% (Prolume).

[12] = tested on: HIV-1 JR-FL; assay: Sensitization of HIV-1 JR-FL to neutralization by rabbit antisera elicited by gp120 cores; type: cell-based
Procedure: as §2
Animal inoculations and analysis of antisera. Approximately 12-week-old female New Zealand White rabbits were housed at the AAALAC-accredited facilities at Bioqual (Rockville, Md.) under specific pathogen-free conditions. At 4-week intervals, rabbits were inoculated intramuscularly with […] of affinity-purified protein formulated in GlaxoSmithKline Adjuvant System AS01B by splitting the protein-adjuvant mix in the two hind legs. Serum was prepared, heat inactivated, and assessed for anti-gp120 ELISA titers and the presence neutralizing antibodies.
(+)-DMJ-I-228 and (+)-DMJ-II-121 were examined to determine if they could sensitize HIV-1 to neutralization by antisera elicited by an Env immunogen. […] These stabilized gp120 cores were derived from the laboratory-adapted HIV-1 HXBc2 strain and lack the V1, V2, and V3 variable regions. […]

[13] = tested on: HIV-1 transmitted/founder viruses; assay: Sensitization of transmitted/founder viruses to 3CC gp120 core antisera; type: cell-based
Procedure: as §2
Animal inoculations and analysis of antisera. Approximately 12-week-old female New Zealand White rabbits were housed at the AAALAC-accredited facilities at Bioqual (Rockville, Md.) under specific pathogen-free conditions. […] Serum was prepared, heat inactivated, and assessed for anti-gp120 ELISA titers and the presence neutralizing antibodies. […]

[14] = tested on: HIV-1 transmitted/founder viruses; assay: Inhibition and 17b sensitization of transmitted/founder viruses; type: cell-based
Procedure: as §2
The ability of (+)-DMJ-II-121 to sensitize HIV-1 transmitted/founder viruses to neutralization by the 17b antibody (FIG. 8A) and antisera elicited by the 3CC gp120 core immunogen (FIG. 8B) was examined. In these experiments, the recombinant viruses were pseudotyped with the HIV-1 Envs derived from HIV-1 transmitted/founder viruses. Recombinant HIV-1 pseudotyped with the primary R5 HIV-1 JR-FL and the amphotropic murine leukemia virus (A-MLV) Envs served as positive and negative controls, respectively. HIV-1 neutralization was examined in the presence of sub-neutralizing concentrations of (+)-DMJ-II-121 and different concentrations of the 17b antibody or sera.

Molecule	neutralization of pseudotyped virus, no CD4-mimetic compound [1]	neutralization of pseudotyped virus, no CD4-mimetic compound [2]	IC50 [4]	inhibition of HIV-1 JR-FL virus relative to parental NBD-556 [4]	IC50 [5]	sensitization of HIV-1 YU2 to neutralization by 17b and 39F antibodies [6]	IC50 [7]	inhibition of A-MLV infection [8]	ability to bind monomeric gp120 relative to NBD-556 [9]	sensitization of HIV-1 JR-FL to neutralization by 17b and 39F antibodies [10]	half-life of HIV-1 JR-FL infectivity on ice in the presence of the compound [11]	further results
17b antibody	> 100 µg/mL	> 100 µg/mL										IC50, inhibition of HIV-1 JR-FL entry into cells co-expressing CD4 and CCR5, in the presence of 30 µM (+)-DMJ-II-121 [1]: 0.6 µg/mL
39F antibody	> 100 µg/mL	> 100 µg/mL										
N=C(N)N[C@H]1Cc2ccccc2[C@@H]1NC(=O)C(=O)Nc1ccc(Cl)c(F)c1 [(+)-DMJ-I-228]			86.9 µM	specifically inhibited the HIV-1 JR-FL virus with an improved potency	46.7 µM	each sensitized HIV-1 YU2 and JR-FL to neutralization by the 17b and 39F antibodies	22.9 µM	Neither (+)-DMJ-I-228 nor (+)-DMJ-II-121 inhibited A-MLV infection	significant improvement in the ability to bind monomeric gp120	each sensitized HIV-1 YU2 and JR-FL to neutralization by the 17b and 39F antibodies	9.1 h	recognition of cells infected with four primary viruses by HIV-1+ sera [3]: significantly enhance recognition
N=C(N)NC[C@H]1Cc2ccccc2[C@@H]1NC(=O)C(=O)Nc1ccc(Cl)c(F)c1 [(+)-DMJ-II-121]			27.8 µM	specifically inhibited the HIV-1 JR-FL virus with an improved potency	3.6 µM	each sensitized HIV-1 YU2 and JR-FL to neutralization by the 17b and 39F antibodies	2.3 µM	Neither (+)-DMJ-I-228 nor (+)-DMJ-II-121 inhibited A-MLV infection	significant improvement in the ability to bind monomeric gp120	each sensitized HIV-1 YU2 and JR-FL to neutralization by the 17b and 39F antibodies	1.9 h	sensitization of HIV-1 JR-FL to neutralization by sera from rabbits immunized with 3CC or 4CC stabilized gp120 cores [12]: sensitized HIV-1 JR-FL to neutralization; sera elicited by non-stabilized V3S core that neutralized HIV-1 JR-FL after incubation with compound [12]: None of the rabbit sera; sera from rabbits immunized with the 2CC gp120 core that neutralized HIV-1 JR-FL only in the presence of compound ([12]; five sera): Three of the five sera; sensitivity of TD12 and B5 transmitted/founder viruses to 3CC antisera in the presence of compound [13]: increased sensitivity to neutralization by 3CC antisera; number of transmitted/founder viruses sensitive to compound inhibition but not sensitized to 17b neutralization [14]: Three; sensitivity of transmitted/founder virus TA5 to the compound alone ([14]; TA5 virus): did not exhibit sensitivity; number of 17b-resistant transmitted/founder HIV-1 sensitized to neutralization by the 17b antibody ([14]; of ten 17b-resistant viruses, 50 μM compound): six
CC1(C)CC(NC(=O)C(=O)Nc2ccc(Cl)cc2)CC(C)(C)N1 [NBD-556, reference compound]											15.7 h	effect on neutralization of HIV-1 JR-FL by the 17b antibody [10]: minimally affected; effect on neutralization of HIV-1 JR-FL by the 39F antibody ([10]; only at high concentrations): weakly increase
